Source: ChEMBL document CHEMBL1201862, “PubChem BioAssay data set” (2004)
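These data come from cells grown in 96-well plates and exposed to compound for 48 hours at five concentrations. The concentration for 50% growth inhibition is given as GI50.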 The source made the active and inactive calls. No stated cut-off is given here; in the data, active = GI50 up to about 1.1 µM and inactive = higher.

How the values were obtained:
Assay in all cases: NCI tumour cell line growth inhibition, 48 h
DLD-1 = system: DLD-1
M14 = system: M14
SNB-75 = system: SNB-75
TK-10 = system: TK-10
SF-539 = system: SF-539
NCI-H522 = system: NCI-H522
KM-20L2 = system: KM-20L2
XF498 = system: XF498
SK-OV-3 = system: SK-OV-3
HOP-62 = system: HOP-62
OVCAR-4 = system: OVCAR-4
CAKI-1 = system: CAKI-1
RXF 393 = system: RXF 393
BT-549 = system: BT-549
NCI/ADR-RES = system: NCI/ADR-RES
Hs-578T = system: Hs-578T
DU-145 = system: DU-145
PC-3 = system: PC-3
MDA-MB-435 = system: MDA-MB-435
LOX IMVI = system: LOX IMVI

Measured: GI50

COC(=O)C1=COC2OC3/C(=C\c4ccc(O)c(OC)c4)C(=O)OC34C=CC1C24 (configuration not stated)
inactive: DLD-1 18.5 µM | M14 3.37 µM | SNB-75 11.7 µM | TK-10 17.3 µM | SF-539 17.4 µM | NCI-H522 15.2 µM | KM-20L2 17.8 µM | XF498 3.46 µM | SK-OV-3 17 µM | HOP-62 24.5 µM | OVCAR-4 17.6 µM | CAKI-1 23.3 µM

O=C1C(Cl)=C(N2CCC[C@H]2CO)C(=O)c2c(O)ccc(O)c21
inactive: RXF 393 1.99 µM | BT-549 > 10 µM | M14 1.95 µM | SNB-75 > 10 µM | TK-10 2.54 µM | SF-539 > 10 µM | NCI/ADR-RES 2 µM | SK-OV-3 > 10 µM | HOP-62 > 10 µM | OVCAR-4 2.16 µM | Hs-578T 2.26 µM | DU-145 4.38 µM | PC-3 4.24 µM | MDA-MB-435 1.82 µM | CAKI-1 1.66 µM | LOX IMVI 2.09 µM
active: NCI-H522 0.104 µM

CCOC(=O)/C(C(=O)Nc1ccc(Cl)cc1)=C(/N)N1CCCC1
inactive: RXF 393 > 100 µM | BT-549 > 100 µM | M14 > 100 µM | SNB-75 > 100 µM | TK-10 > 100 µM | SF-539 > 100 µM | NCI-H522 > 100 µM | NCI/ADR-RES > 100 µM | SK-OV-3 > 100 µM | HOP-62 > 100 µM | OVCAR-4 69.3 µM | Hs-578T > 100 µM | DU-145 > 100 µM | PC-3 > 100 µM | MDA-MB-435 > 100 µM | CAKI-1 > 100 µM | LOX IMVI > 100 µM

ClCc1nnc2n1-c1ccc(Cl)cc1SC2
inactive: RXF 393 2.23 µM | SNB-75 3.15 µM | SF-539 3.47 µM | NCI-H522 1.63 µM | NCI/ADR-RES 1.78 µM | KM-20L2 4.67 µM | XF498 5.57 µM | SK-OV-3 3.56 µM | HOP-62 6.25 µM | OVCAR-4 3.89 µM | LOX IMVI 1.49 µM

COc1cc2cc(C(=O)N3CC(CCl)c4c3cc(N(C)C)c3ccccc43)[nH]c2c(OC)c1OC (configuration not stated)
active: RXF 393 0.0137 µM | BT-549 0.103 µM | M14 < 0.01 µM | SNB-75 < 0.01 µM | TK-10 0.0108 µM | SF-539 0.0131 µM | NCI-H522 < 0.01 µM | NCI/ADR-RES < 0.01 µM | SK-OV-3 0.0137 µM | HOP-62 < 0.01 µM | OVCAR-4 0.0163 µM | Hs-578T 0.0199 µM | DU-145 < 0.01 µM | PC-3 < 0.01 µM | MDA-MB-435 0.0146 µM | CAKI-1 < 0.01 µM | LOX IMVI < 0.01 µM

O=C1c2ccccc2-c2nnc(-c3ccc([N+](=O)[O-])cc3)cc21
inactive: RXF 393 > 10 µM | BT-549 > 10 µM | M14 > 10 µM | SNB-75 > 10 µM | TK-10 > 10 µM | SF-539 > 10 µM | NCI-H522 > 10 µM | NCI/ADR-RES > 10 µM | SK-OV-3 > 10 µM | HOP-62 > 10 µM | OVCAR-4 > 10 µM | Hs-578T > 10 µM | DU-145 > 10 µM | PC-3 > 10 µM | MDA-MB-435 > 10 µM | CAKI-1 > 10 µM | LOX IMVI > 10 µM

Nc1nnc(N)n1NC(=O)C(=O)Nc1ccc([N+](=O)[O-])cc1
inactive: DLD-1 > 100 µM | RXF 393 > 100 µM | SNB-75 > 100 µM | TK-10 > 100 µM | SF-539 > 100 µM | NCI-H522 > 100 µM | KM-20L2 > 100 µM | XF498 > 100 µM | SK-OV-3 > 100 µM | HOP-62 > 100 µM | OVCAR-4 > 100 µM | CAKI-1 > 100 µM | LOX IMVI > 100 µM

CCCCOP1(=O)C=CC(Cl)=C(C)C1 (configuration not stated)
inactive: M14 33.3 µM | SNB-75 23.3 µM | TK-10 36.6 µM | SF-539 18.5 µM | NCI-H522 > 10 µM | KM-20L2 22.8 µM | XF498 19.2 µM | HOP-62 71.3 µM | OVCAR-4 25.2 µM | CAKI-1 68.7 µM

CCCNC(/C=C/[Si](C)(C)C)CO.CCCNCC(O)/C=C/[Si](C)(C)C (configuration not stated)
inactive: DLD-1 > 100 µM | RXF 393 95.7 µM | M14 > 100 µM | SNB-75 40.6 µM | TK-10 > 100 µM | SF-539 > 100 µM | NCI-H522 > 100 µM | KM-20L2 > 100 µM | XF498 22 µM | SK-OV-3 > 100 µM | LOX IMVI > 100 µM

Cc1ccc2c(O)cc(-c3cc(C)sc3C)nc2n1
active: MDA-MB-435 0.351 µM
inactive: RXF 393 2.81 µM | BT-549 8.87 µM | M14 3.2 µM | SNB-75 2.9 µM | TK-10 25.1 µM | SF-539 2.3 µM | NCI-H522 2.07 µM | NCI/ADR-RES 1.62 µM | SK-OV-3 3.77 µM | HOP-62 6.07 µM | OVCAR-4 > 36.6 µM | Hs-578T 2.47 µM | DU-145 3.99 µM | PC-3 2.55 µM | CAKI-1 14.4 µM | LOX IMVI 5.08 µM
